Measurements published in patent publication US5399696A, “Isoquinolinyl compounds which are intermediates” (Eli Lilly and Company, priority 1993, dated 1995).

What was measured:
[1] = target: kainic acid (KA) receptor; experiment: Radioligand binding: tritiated kainate binding with washed synaptosomal membranes from the rat forebrain; settings: tritiated kainate 5 nM, pH 7.4, mean ± standard error (n = 3), values marked ^c single experiment
Procedure: (§1) The formula I compounds were tested for their ability to inhibit NMDA, AMPA, and kainic acid receptor binding to rat membranes in a radioligand binding assay using [^3 H]CGS19755, [^3 H]AMPA, and [^3 H]KA. For all radioligand binding assays, male Sprague-Dawley rats were used. […] Non-specific binding was determined using 10 μM L-glutamate. Samples were incubated in an ice-bath for 30 minutes, and bound ligand was separated from the free ligand by rapid filtration through WHATMAN GF/B glass fiber filters. Murphy et al, British J. Pharmacol., 95, 932-938 (1988). Kainate binding was performed using washed synaptosomal membranes from the rat forebrain as described by Simon et al. Simon et al, J. Neurochem., 26, 141-147 (1976). Tritiated kainate (5 nM) was added to 50 mM Tris-HCl buffer (pH 7.4 at 4° C.) containing 200-300 μg/ml of tissue protein. Samples were incubated for 30 minutes in an ice-bath, then rapidly filtered using a Brandel cell harvester and WHATMAN GF/C filters. Filters were washed twice with 3 ml of cold buffer. Non-specific binding was determined using 100 μM non-labeled kainate. The binding of [^3 H]AMPA (5 nM) was conducted with crude membranes of rat forebrain in the presence of 100 mM KSCN as described by Nielson et al. Nielson et al, Eur. J. Med. Chem. Chim. Ther., 21, 433-437 (1986). Non-specific binding was determined with 10 μM non-labeled AMPA. The concentration of the formula I compound that inhibited 50% binding (IC50, mean ±standard error, n=3) as calculated by linear regression of displacement data transformed to the Hill equation as described by Bennett. Bennett, Neurotransmitter Receptor Binding, 57-90 (1978).

[2] = target: AMPA receptor; experiment: Radioligand binding: [^3 H]AMPA binding with crude membranes of rat forebrain
Procedure: as §1

[3] = system: NMDA receptor; experiment: Antagonism of NMDA-induced depolarization of rat cortical wedges; assay type: cell-based; settings: NMDA 40 μM, mean ± standard error (n = 3), read-out: IC50 NMDA, antagonism of cortical wedge depolarization
Procedure: (§2) The depolarization of rat cortical wedges was used to test the selectivity and potency of the formula I compounds as AMPA antagonists using a technique similar to that described by Harrison and Simmonds. Harrison and Simmonds, Bri. J. Pharmacol., 84, 381-391 (1984). Generally, 4-ml aliquots of NMDA (40 μM), AMPA (40 μM), and kainate (10 μM) were superfused (2 ml/min.) on the grey matter at intervals of 15-20 minutes until stable responses were attained. The tissue was then exposed for 15 minutes to various concentrations of the formula I compounds before retesting the agonists. The IC50 values were calculated from linear regression of log dose-response curves, each point the mean of at least three observations on separate slices from more than one animal.

[4] = target: NMDA receptor; experiment: Radioligand binding: displacement of [^3 H]CGS19755 from synaptosomal membranes of rat forebrain (NMDA receptor affinity); settings: [^3 H]CGS19755 10 nM, mean ± standard error (n = 3), values marked ^c single experiment
Procedure: as §1

[5] = system: kainic acid (KA) receptor; experiment: Antagonism of kainate-induced depolarization of rat cortical wedges; assay type: cell-based; settings: kainate 10 μM, mean ± standard error (n = 3)
Procedure: as §2

[6] = system: AMPA receptor; experiment: Antagonism of AMPA-induced depolarization of rat cortical wedges; assay type: cell-based
Procedure: as §2

[7] = system: AMPA receptor; settings: cited: LaPeillet et al.; cited from earlier work
[8] = system: AMPA receptor; settings: cited: Sheardown et al.; Buchan et al.; LePeillet et al.; cited from earlier work
[9] = Table I, racemic, [^3 H]AMPA 5 nM, 100 mM KSCN, mean ± standard error (n = 3), values marked ^c single experiment, read-out: IC50 AMPA, receptor binding
[10] = Table III; racemic; AMPA 40 μM; mean ± standard error (n = 3); read-out: IC50 AMPA, antagonism of cortical wedge depolarization
[11] = text summary of Table I, racemic, read-out: selectively displaced ^3 H-AMPA with IC50 values
[12] = Table III; cortical wedge; racemic
[13] = Table II, enantiopure, [^3 H]AMPA 5 nM, 100 mM KSCN, mean ± standard error (n = 3), values marked ^c single experiment, read-out: IC50 AMPA, receptor binding
[14] = Table IV; enantiopure; AMPA 40 μM; mean ± standard error (n = 3); read-out: IC50 AMPA, antagonism of cortical wedge depolarization

IC50 KA, receptor binding ([1]; Table II, enantiopure)	IC50 [2, 13]	IC50 ([3]; Table IV, enantiopure)	IC50 ([4]; Table II, enantiopure)	IC50 KA, antagonism of cortical wedge depolarization ([5]; Table IV, enantiopure)	Structure (SMILES)	IC50 KA, receptor binding ([1]; Table I, racemic)	IC50 [2, 9]	IC50 ([3]; Table III, racemic)	IC50 ([4]; Table I, racemic)	IC50 KA, antagonism of cortical wedge depolarization ([5]; Table III, racemic)	IC50 [6, 10]	further results
–	–	–	–	–	O=C(O)[C@@H]1C[C@H]2C[C@H](CCS(=O)(=O)O)CC[C@H]2CN1 (racemic) [Compound 12, (3SR,4aRS,6RS,8aRS)-6-(2-Sulfoethyl)decahydroisoquinoline-3-carboxylic Acid]	> 100 µM	11.1 µM	> 100 µM	61.8 µM	100 µM	31.4 ± 1.7 µM	–
–	–	–	–	–	O=C(O)[C@@H]1C[C@H]2C[C@@H](CCc3cc(O)no3)CC[C@H]2CN1 (racemic) [Compound 13, (3SR,4aRS,6RS,8aRS)-6-[2-(3-Hydroxyisoxazole-5-yl)ethyl]decahydroisoquinoline-3-carboxylic Acid]	> 100 µM	13.8 ± 1.24 µM	> 100 µM	> 100 µM	> 100 µM	16.5 ± 2.7 µM	IC50 [2, 11]: < 15 µM; selective AMPA receptor antagonism (in words) [6, 12]: selective AMPA receptor antagonists
–	–	–	–	–	O=C(O)[C@@H]1C[C@H]2C[C@@H](CSc3ncn[nH]3)CC[C@H]2CN1 (racemic) [Compound 14, (3SR,4aRS,6SR,8aRS)-6-[2-(1(2-4)H-1,2,4-Triazol-5-yl)-2-thiaethyl]decahydroisoquinoline-3-carboxylic Acid]	> 10 µM	> 10 µM	> 100 µM	> 10 µM	> 100 µM	68.8 ± 12.3 µM	–
–	–	–	–	–	O=C(O)[C@@H]1C[C@H]2C[C@@H](CS(=O)(=O)c3ncn[nH]3)CC[C@H]2CN1 (racemic) [Compound 15, (3SR,4aRS,6SR,8aRS)-6-[(1(2-4)H-1,2,4-Triazole-5-yl)sulfonylmethyl]decahydroisoquinoline-3-carboxylic Acid]	> 100 µM	1.67 ± 0.14 µM	> 100 µM	> 100 µM	Ca. 10 μM	2.16 ± 0.79 µM	IC50 [2, 11]: < 15 µM; selective AMPA receptor antagonism (in words) [6, 12]: selective AMPA receptor antagonists
–	–	–	–	–	O=C(O)[C@@H]1C[C@H]2C[C@@H](C=Cc3nsnc3O)CC[C@H]2CN1 (racemic) [Compound 20, (3SR,4aRS,6SR,8aRS)-6-[2-(3-Hydroxy-1,2,5-thiadiazole-4-yl)ethenyl]decahydroisoquinoline-3-carboxylic Acid]	> 100 µM	83.4 µM	> 100 µM	> 100 µM	> 100 µM	100 µM	–
–	–	–	–	–	O=C(O)[C@@H]1C[C@H]2C[C@@H](C(Cc3nn[nH]n3)c3ccccc3)CC[C@H]2CN1 (stereo partly drawn) [Compound 19, (3SR,4aRS,6RS,8aRS)-6-[2-(1(2)H-Tetrazole-5-yl)-1-phenylethyl]decahydroisoquinoline-3-carboxylic Acid]	> 100 µM	6.58 µM	100 µM	13.8 µM	23.6 ± 5.6 µM	9 ± 2.8 µM	IC50 [2, 11]: < 15 µM; selective AMPA receptor antagonism (in words) [6, 12]: selective AMPA receptor antagonists
12.5 µM	0.58 ± 0.03 µM	22.9 ± 3.8 µM	16.3 µM	> 31.6 µM	O=C(O)[C@@H]1C[C@H]2C[C@@H](CSc3nn[nH]n3)CC[C@H]2CN1 [Compound 23]	–	–	–	–	–	–	IC50 [6, 14]: 1.35 ± 0.35 µM
> 100 µM	21.9 µM	> 100 µM	> 10 µM	> 31.6 µM	O=C(O)[C@H]1C[C@@H]2C[C@H](CSc3nn[nH]n3)CC[C@@H]2CN1 [Compound 24]	–	–	–	–	–	–	IC50 [6, 14]: 19.8 ± 2.2 µM
27.9 µM	17.8 µM	> 100 µM	> 100 µM	29.1 ± 4.3 µM	O=C(O)[C@@H]1C[C@H]2C[C@H](CSc3nn[nH]n3)CC[C@H]2CN1 [Compound 25, (3S,4aR,6R,8aR)-6[2(1(2)H-Tetrazole-5-yl)-2-thiaethyl]decahydroisoquinoline-3-carboxylic Acid]	–	–	–	–	–	–	IC50 [6, 14]: 9 ± 0.8 µM
–	–	–	–	–	CC1=NN=C(c2ccc(N)cc2)c2cc3c(cc2C1)OCO3 [GKYI 52466]	–	–	–	–	–	–	neuroprotection in rat global ischemia (in words) [7]: effective neuroprotective agent in rat global ischemia models
–	–	–	–	–	NS(=O)(=O)c1cccc2c1c([N+](=O)[O-])cc1nc(O)c(O)nc12 [NBQX, 2,3-dihydroxy-6-nitro-7-sulfamoylbenzo[f]quinoxaline]	–	–	–	–	–	–	prevention of global and focal ischemic damage (in words) [8]: effective in preventing global and focal ischemic damage

Structure (SMILES)	IC50 KA, receptor binding ([1]; Table II, enantiopure)	IC50 [2, 13]	IC50 ([3]; Table IV, enantiopure)	IC50 ([4]; Table II, enantiopure)	IC50 KA, antagonism of cortical wedge depolarization ([5]; Table IV, enantiopure)	IC50 KA, receptor binding ([1]; Table I, racemic)	IC50 [2, 9]	IC50 ([3]; Table III, racemic)	IC50 ([4]; Table I, racemic)	IC50 KA, antagonism of cortical wedge depolarization ([5]; Table III, racemic)	IC50 [6, 10]	further results
O=C(O)[C@@H]1C[C@H]2C[C@@H](CCc3nn[nH]n3)CC[C@H]2CN1 [Compound 21, (3S,4aR,6R,8aR)-(-)-6-[2-(1(2)H-Tetrazole-5-yl)ethyl]decahydroisoquinoline-3-carboxylic Acid]	28.1 ± 1.7 µM	1.35 ± 0.13 µM	< 100 µM	12.1 ± 2 µM	< 100 µM	–	–	–	–	–	–	IC50 ([6]; read-out: IC50 AMPA, antagonism of cortical wedge depolarization; Table IV; enantiopure; AMPA 40 μM; mean ± standard error (n = 3)): 1.78 ± 0.23 µM
